Laboratory results: publication PMC8466238, “Development of High Affinity Calcitonin Analog Fragments Targeting Extracellular Domains of Calcitonin Family Receptors” (Biomolecules, 2021)
Several values for one entry are separate records, joined by “and”; a condition that tells them apart may be missing. Equal entries are not always repeated. Where two headings read alike, the source gives them in different places. Where a SMILES comes first, the peptide text is derived from it. Where no end group is shown, it is not given here. [ ]: non-standard residue; d: D form. Hyp = O=C(O)[C@@H]1C[C@@H](O)CN1

How the values were obtained:
[1] = target: T1, AMY receptor 2 ECD (RAMP2-CTR ECD fusion protein) (Homo sapiens, UniProt O60895+P30988); assay: FP competition peptide binding assay with AMY receptor 2 ECD, FITC-AC413(6–25) Y25P probe; conditions: Figure 5f; RAMP2-CTR ECD fusion protein 67 nM, FITC-AC413(6–25) Y25P 10 nM; mean ± SD of N = 3; read-out: pKI Mean ± SD (converted)
T1 construct: pHLsec/hRAMP2.55–140-(GSA)3-hCTR.34–141-H6 (H-pSL006); H6 (His6) (C); made in house; host or cells: HEK293T
Text: (§1) The overall procedures of FP peptide binding assay with receptor ECDs and FITC-labeled peptide probes were previously described. […] A SpectraiD5 (Molecular Devices, San Jose, CA, USA) was used to measure fluorescence polarization/anisotropy. Background (reaction buffer only) was subtracted for anisotropy calculation. For the SpectraiD5, G factor (0.38 for FITC-sCT(22–32) and 0.41 for FITC-AC413(6–25) and FITC-AC413(6–25) Y25P) was used to correct the instrumental bias for anisotropy calculation. The polarization (mP) of the FITC-peptide probes only (No receptor ECD) was set close to 50 mP. For the saturation binding assay, the anisotropy values were re-calculated when total fluorescence intensity was changed by more than 10% as previously described. […] Anisotropy values were used to produce non-linear regression curves with PRISM 5.0 (GraphPad software, San Diego, CA, USA) as previously described. KI indicates affinity values obtained from competition binding assay and it was calculated from the non-linear regression curves of anisotropy by using equations previously described. Concentrations of the FITC-labeled peptide and the total receptor protein and the affinity of the FITC-labeled peptide for the receptor protein were incorporated into the equations for the KI calculation of the competitive peptide ligand. Two technical replicates were used for each receptor concentration in the peptide-binding curve. SEM of the anisotropy values of the two replicates at each receptor concentration were presented as error bars in the representative peptide-binding curves. When the error bars were shorter than the height of the symbol, they were omitted in the representative curves. At least three independent peptide binding experiments were performed to obtain three independent peptide-binding curves. Mean and standard deviation of peptide ligand affinity were calculated from them.

[2] = target: T2, AMY receptor 3 ECD (RAMP3-CTR ECD fusion protein) (Homo sapiens, UniProt O60896+P30988); assay: FP competition peptide binding assay with AMY receptor 3 ECD, FITC-AC413(6–25) Y25P probe; conditions: Figure 5g; RAMP3-CTR ECD fusion protein 252 nM, FITC-AC413(6–25) Y25P 10 nM; mean ± SD of N = 3; read-out: pKI Mean ± SD (converted)
T2 construct: pHLsec/hRAMP3.25–112-(GSA)3-hCTR.34–141-H6 (H-pSL001); H6 (His6) (C); made in house; host or cells: HEK293S GnTI−
T2 sequence (O60896+P30988 with tags, fused parts or gaps): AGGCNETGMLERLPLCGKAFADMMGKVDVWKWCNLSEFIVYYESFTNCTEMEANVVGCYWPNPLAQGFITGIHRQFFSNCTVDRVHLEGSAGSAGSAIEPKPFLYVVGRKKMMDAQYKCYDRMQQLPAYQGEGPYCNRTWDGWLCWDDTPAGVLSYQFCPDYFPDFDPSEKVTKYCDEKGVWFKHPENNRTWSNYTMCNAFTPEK
Text: as §1

[3] = target: T3, CTR ECD (Homo sapiens, UniProt P30988); assay: FP competition peptide binding assay with purified CTR ECD, FITC-sCT(22–32) probe; conditions: for Ki: CTR ECD 500 nM, FITC-sCT(22–32) 10 nM, mean ± SD of N = 3 independent experiments
T3 construct: pHLsec/hCTR.34–141-H6 (H-pSL003); H6 (His6) (C); made in house; host or cells: HEK293T
T3 sequence (P30988 34-141): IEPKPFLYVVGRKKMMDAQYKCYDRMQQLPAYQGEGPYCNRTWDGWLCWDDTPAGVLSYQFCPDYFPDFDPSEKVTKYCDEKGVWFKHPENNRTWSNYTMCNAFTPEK
Text: as §1

[4] = target: T4, AMY receptor 1 ECD (RAMP1-CTR ECD fusion protein) (Homo sapiens, UniProt O60894+P30988); assay: FP competition peptide binding assay with AMY receptor 1 ECD, FITC-AC413(6–25) Y25P probe; conditions: Figure 5e; RAMP1-CTR ECD fusion protein 77 nM, FITC-AC413(6–25) Y25P 10 nM; mean ± SD of N = 3; read-out: pKI Mean ± SD (converted)
T4 construct: pHLsec/hRAMP1.24–111-(GSA)3-hCTR.34–141-H6 (H-pSL005); H6 (His6) (C); made in house; host or cells: HEK293T
Text: as §1

[5] = target: T5, RAMP3-CTR ECD fusion protein (hRAMP3.25–112-(GSA)3-hCTR.34–141-H6) (human, UniProt O60896 25-112; P30988 34-141); assay: fluorescence polarisation; competition binding, full curves: FITC-AC413(6–25) Y25P probe 10 nM, RAMP1-CTR ECD 77 nM, RAMP2-CTR ECD 67 nM or RAMP3-CTR ECD 252 nM, competitive peptide at multiple concentrations, all in solution; KI from non-linear regression of anisotropy; conditions: both partners purified
T5 construct: human receptor activity-modifying protein 3 (RAMP3), extracellular domain, residues 25-112; linker, printed as (GSA)3; human calcitonin receptor (CTR), extracellular domain, residues 34-141; Secreted from a pHLsec-based vector; also called AMY receptor 3 ECD; RAMP3 ECD-CTR ECD fusion protein; source: HEK293S GnTI-, transiently transfected (PEI), secreted to cell culture media, purified (IMAC, SEC)
T5 chain: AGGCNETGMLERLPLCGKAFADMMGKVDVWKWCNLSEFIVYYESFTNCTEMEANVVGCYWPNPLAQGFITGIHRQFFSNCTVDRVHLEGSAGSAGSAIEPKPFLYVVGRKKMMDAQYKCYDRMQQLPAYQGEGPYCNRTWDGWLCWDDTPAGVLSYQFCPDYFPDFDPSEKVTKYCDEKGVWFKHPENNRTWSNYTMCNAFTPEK

[6] = target: T6, RAMP1-CTR ECD fusion protein (hRAMP1.24–111-(GSA)3-hCTR.34–141-H6) (human, UniProt O60894 24-111; P30988 34-141); assay: as above; conditions: both partners purified
T6 construct: human receptor activity-modifying protein 1 (RAMP1), extracellular domain, residues 24-111; linker, printed as (GSA)3; human calcitonin receptor (CTR), extracellular domain, residues 34-141; Secreted from a pHLsec-based vector; also called AMY receptor 1 ECD; RAMP1 ECD-CTR ECD fusion; source: HEK293T, transiently transfected, secreted to cell culture media, purified (IMAC, SEC)
T6 chain: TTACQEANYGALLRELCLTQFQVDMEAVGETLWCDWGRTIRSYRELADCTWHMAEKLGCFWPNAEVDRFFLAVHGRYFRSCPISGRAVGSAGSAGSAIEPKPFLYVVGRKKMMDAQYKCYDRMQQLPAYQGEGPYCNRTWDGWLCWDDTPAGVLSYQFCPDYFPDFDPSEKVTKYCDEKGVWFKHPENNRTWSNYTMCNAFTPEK

[7] = target: T7, RAMP2-CTR ECD fusion protein (hRAMP2.55–140-(GSA)3-hCTR.34–141-H6) (human, UniProt O60895 55-140; P30988 34-141); assay: as above; conditions: both partners purified
T7 construct: human receptor activity-modifying protein 2 (RAMP2), extracellular domain, residues 55-140; linker, printed as (GSA)3; human calcitonin receptor (CTR), extracellular domain, residues 34-141; Secreted from a pHLsec-based vector; also called AMY receptor 2 ECD; RAMP2 ECD-CTR ECD fusion; source: HEK293T, transiently transfected, secreted to cell culture media, purified (IMAC, SEC)
T7 chain: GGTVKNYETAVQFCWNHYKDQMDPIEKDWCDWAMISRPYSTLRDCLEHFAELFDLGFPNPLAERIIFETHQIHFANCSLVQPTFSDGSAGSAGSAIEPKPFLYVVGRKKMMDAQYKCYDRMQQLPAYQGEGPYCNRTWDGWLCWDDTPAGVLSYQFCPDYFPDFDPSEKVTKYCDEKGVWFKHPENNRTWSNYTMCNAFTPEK

[8] = target: T8, calcitonin receptor extracellular domain (hCTR.34–141-H6) (human, UniProt P30988 34-141); assay: fluorescence polarisation; competition binding, full curves: FITC-sCT(22–32) probe 10 nM, CTR ECD 500 nM, competitive peptide at multiple concentrations, all in solution; KI from non-linear regression of anisotropy; conditions: both partners purified
T8 construct: human calcitonin receptor (CTR), extracellular domain, residues 34-141; Secreted from a pHLsec-based vector; also called CTR ECD; purified CTR ECD; source: HEK293T, transiently transfected, secreted to cell culture media, purified (IMAC, SEC)
T8 sequence (looked up): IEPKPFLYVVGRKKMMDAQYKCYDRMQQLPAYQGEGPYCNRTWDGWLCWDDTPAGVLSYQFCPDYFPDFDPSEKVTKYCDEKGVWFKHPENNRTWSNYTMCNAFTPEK

[9] = Figure 3b experiment set, read-out: pKI Mean ± SD (converted)
[10] = Figure 1d experiment set, pKI = –log10[KI] (M)
[11] = Figure 2b experiment set, read-out: pKI Mean ± SD (converted)

YPRTDTGPGTP-NH2 [sCT(22–32) N26D/S29P]
Ki [1]: 468 nM
Ki [2]: 331 nM
Ki [3, 9]: 2.4e-07 M
Ki [3, 10]: 3.16e-07 M
Ki [4]: 380 nM

YPRTDTGVGTP-NH2 [sCT(22–32) N26D/S29V]
Ki [3, 11]: 5.89e-07 M

YPRTNTGPGTP-NH2 [sCT(22–32) S29P]
Ki [3, 10]: 3.47e-07 M

YPRTDTGSGTP-NH2 [sCT(22–32) N26D]
Ki [3, 11]: 9.77e-07 M
Ki [3, 10]: 1e-06 M

C[C@@H](O)[C@H](NC(=O)[C@H](CC(=O)O)NC(=O)[C@@H](NC(=O)[C@H](CCCNC(=N)N)NC(=O)[C@@H]1CCCN1C(=O)[C@@H](N)Cc1ccc(O)cc1)[C@@H](C)O)C(=O)NCC(=O)N1C[C@H](O)C[C@H]1C(=O)NCC(=O)N[C@H](C(=O)N1CCC[C@H]1C(N)=O)[C@@H](C)O [sCT(22–32) N26D/S29HYP] (H-YPRTDTG[Hyp]GTP-NH2; N-terminus assumed)
Ki [3, 9]: 3.16e-06 M
affinity decrease for the CTR ECD compared to sCT(22–32) with N26D/S29P mutations ([3]; Figure 3b, ratio of KI values, versus sCT(22–32) N26D/S29P): 13 fold

B1: sCT(22–32) (peptide)
peptide: YPRTNTGSGTP-NH2
notes: salmon calcitonin (sCT), residues 22-32; numbers count on: the mature 32-residue hormone; also called wild-type sCT(22–32); salmon calcitonin fragment 22–32; source: synthetic peptide (Genscript, HPLC-purified)
Ki [5]: 2560 nM
pKI [5]: 5.59 -log10(M)
Ki [6]: 2550 nM
pKI [6]: 5.59 -log10(M)
Ki [7]: 2800 nM
pKI [7]: 5.55 -log10(M)
Ki [8]: 2030 nM and 1760 nM
pKI [8]: 5.75 -log10(M) and 5.69 -log10(M)

B2: sCT(22–32) N26D (peptide)
peptide: YPRTDTGSGTP-NH2
notes: salmon calcitonin (sCT), residues 22-32, with N26D; numbers count on: the mature 32-residue hormone; also called sCT(22–32) N26D backbone peptide; source: synthetic peptide (Genscript, HPLC-purified)
Ki [8]: 980 nM and 1000 nM
pKI [8]: 6.01 -log10(M) and 6 -log10(M)
